Measurements reported in patent US20250213571A1, “TYK2 INHIBITORS AND USES THEREOF” (Alumis Inc., priority 2022, published 2025).
Counter-ions that a name gives are not always drawn. Like-named read-outs stand apart in the source and are kept apart here.

Assays:
[1] = cn_pd bond, 14-membered ring
JAK1 JH2 = JAK1 JH2 (Homo sapiens (Human), UniProt P23458); assay: JAK1 JH2 binding (Kd, Table 2); conditions: JH2 domain
TYK2 JH1 = TYK2 JH1 (Homo sapiens (Human), UniProt P29597); assay: TYK2 JH1 binding (Kd, Table 2); conditions: JH1 domain
TYK2 JH1, sequence (P29597 897-1176): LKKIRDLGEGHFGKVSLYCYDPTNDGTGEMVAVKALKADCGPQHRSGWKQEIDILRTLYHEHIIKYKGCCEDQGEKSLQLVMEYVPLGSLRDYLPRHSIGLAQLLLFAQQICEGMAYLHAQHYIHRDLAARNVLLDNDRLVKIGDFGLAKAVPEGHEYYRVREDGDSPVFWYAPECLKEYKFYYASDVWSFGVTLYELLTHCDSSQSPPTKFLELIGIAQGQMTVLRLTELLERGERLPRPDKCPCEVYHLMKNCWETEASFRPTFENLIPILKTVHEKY

[2] = target: human TYK2 (JH2domain-pseudokinase) (Homo sapiens (Human), UniProt P29597); assay: TYK2 JH2 domain binding assay (KINOMEscan)
human TYK2 (JH2domain-pseudokinase), sequence (P29597 556-888): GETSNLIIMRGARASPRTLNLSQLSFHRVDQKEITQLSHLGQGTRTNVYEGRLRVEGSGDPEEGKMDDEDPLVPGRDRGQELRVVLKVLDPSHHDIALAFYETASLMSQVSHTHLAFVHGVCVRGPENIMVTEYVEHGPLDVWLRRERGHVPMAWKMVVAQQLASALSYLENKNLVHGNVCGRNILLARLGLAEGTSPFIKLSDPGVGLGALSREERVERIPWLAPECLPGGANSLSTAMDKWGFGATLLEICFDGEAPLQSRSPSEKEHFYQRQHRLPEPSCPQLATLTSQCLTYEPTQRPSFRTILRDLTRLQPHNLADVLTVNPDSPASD
Procedure: Binding constants for the compounds described herein against the JH2 domain were determined by the following protocol for a KINOMEscan® assay (DiscoveRx). A fusion protein of a partial length construct of human TYK2 (JH2domain-pseudokinase) (amino acids G556 to D888 based on reference sequence NP_003322.3) and the DNA binding domain of NFkB was expressed in transiently transfected HEK293 cells. From these HEK 293 cells, extracts were prepared in M-PER extraction buffer (Pierce) in the presence of Protease Inhibitor Cocktail Complete (Roche) and Phosphatase Inhibitor Cocktail Set II (Merck) per manufacturers' instructions. The TYK2 (JH2domain-pseudokinase) fusion protein was labeled with a chimeric double-stranded DNA tag containing the NFkB binding site fused to an amplicon for qPCR readout, which was added directly to the expression extract (the final concentration of DNA-tag in the binding reaction is 0.1 nM).
Streptavidin-coated magnetic beads (Dynal M280) were treated with a biotinylated small molecule ligand for 30 minutes at room temperature to generate affinity resins the binding assays. The liganded beads were blocked with excess biotin and washed with blocking buffer (SeaBlock (Pierce), 1% BSA, 0.05% Tween 20, 1 mM DTT) to remove unbound ligand and to reduce nonspecific binding.
The binding reaction was assembled by combining 16 μl of DNA-tagged kinase extract, 3.8 μl liganded affinity beads, and 0.18 μl test compound (PBS/0.05% Tween 20/10 mM DTT/0.1% BSA/2 μg/ml sonicated salmon sperm DNA)]. Extracts were used directly in binding assays without any enzyme purification steps at a ≥10,000-fold overall stock dilution (final DNA-tagged enzyme concentration <0.1 nM). Extracts were loaded with DNA-tag and diluted into the binding reaction in a two-step process. First extracts were diluted 1:100 in 1×binding buffer (PBS/0.05% Tween 20/10 mM DTT/0.1% BSA/2 […] sonicated salmon sperm DNA) containing 10 nM DNA-tag. This dilution was allowed to equilibrate at room temperature for 15 minutes and then subsequently diluted 1:100 in 1× binding buffer. Test compounds were prepared as 111× stocks in 100% DMSO. Kds were determined using an 11-point 3-fold compound dilution series with three DMSO control points. All compounds for Kd measurements were distributed by acoustic transfer (non-contact dispensing) in 100% DMSO. The compounds were then diluted directly into the assays such that the final concentration of DMSO was 0.9%. All reactions were performed in polypropylene 384-well plates. Each was a final volume of 0.02 mL. Assays were incubated with shaking for 1 hour at room temperature. Then the beads were pelleted and washed with wash buffer (1×PBS, 0.05% Tween 20) to remove displaced kinase and test compound. The washed based were resuspended in elution buffer (1 λPBS, 0.05% Tween […] non-biotinylated affinity ligand) and incubated at room temperature with shaking for 30 minutes. The kinase concentration in the eluates was measured by qPCR. qPCR reactions were assembled by adding 2.5 μL of kinase eluate to 7.5 μL of qPCR master mix containing […] amplicon primers and 0.15 μM amplicon probe. The qPCR protocol consisted of a 10 minute hot start at 95° C., followed by 35 cycles of 95° C. for 15 seconds, 60° C. for 1 minute.
Test compounds were prepared as 111× stocks in 100% DMSO. Kds were determined using an 11-point 3-fold compound dilution series with three DMSO control points. All compounds for Kd measurements were distributed by acoustic transfer (non-contact dispensing) in 100% DMSO. The compounds were then diluted directly into the assays such that the final concentration of DMSO was 0.9%. The Kds were determined using a compound top concentration of 30,000 nM. Kd measurements were performed in duplicate.
Binding constants (Kds) were calculated with a standard dose-response curve using the Hill equation: […]
The Hill Slope was set to −1. […]

JAK1 JH2, sequence (P23458 583-855): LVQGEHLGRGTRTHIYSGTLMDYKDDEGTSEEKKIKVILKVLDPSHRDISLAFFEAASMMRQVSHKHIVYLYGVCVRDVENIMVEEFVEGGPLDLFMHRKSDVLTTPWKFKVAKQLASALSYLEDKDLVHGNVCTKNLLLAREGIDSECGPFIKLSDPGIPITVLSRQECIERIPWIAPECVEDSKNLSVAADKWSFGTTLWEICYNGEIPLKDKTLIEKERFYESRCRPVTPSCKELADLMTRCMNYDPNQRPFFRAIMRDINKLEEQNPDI

Molecule | ring closure, isolated yield ([1]; from C[C@H](COCc1cc(N)c2nnn(C)c2c1)NC(=O)c1cnc2c(N(C)C(=O)OC(C)(C)C)cc(Cl)nn12, Pd2(dba)3/BINAP/Cs2CO3, dioxane, 50.0 mM, 16.0 h) [%] | ring closure, isolated yield ([1]; Pd2(dba)3/Xantphos/Cs2CO3, 1,4-dioxane, 85.0 mM, 90.0 °C) [%] | Kd (JAK1 JH2) [nM] | Kd (TYK2 JH1) [nM] | Kd [2] [nM] | ring closure, isolated yield ([1]; Pd2(dba)3/Xantphos/Cs2CO3, 1,4-dioxane, 95.0 mM, 80.0 °C) [%] | ring closure, isolated yield ([1]; Pd2(dba)3/BINAP/Cs2CO3, dioxane, 10.0 mM) [%]
C[C@@H]1COCc2cc(c3nnn(C)c3c2)Nc2cc(N(C)C(=O)OC(C)(C)C)c3ncc(n3n2)C(=O)N1 | 50 |  |  |  |  |  | 
tert-butyl N-methyl-N-[(12R)-12-methyl-10-oxo-2,4,5,7,11,14,18-heptaazapentacyclo[13.6.2.2^(3,6.0^(5,9.0^(19,23]pentacosa-1(21),3,6,8,15,17,19,22,24-nonaen-24-yl]carbamate |  | 62 |  |  |  |  | 
CNc1cc2nc3c(cnn13)C(=O)N[C@H](C)COCc1cc(c3ncn(C)c3c1)N2 [Compound 11, (R,1^3E,1^4E)-3′,7-Dimethyl-17-(methylamino)-3^1H-5-oxa-2,8-diaza-1(5,3)-pyrazolo[1,5-a]pyrimidina-3(4,6)-benzo[d]imidazolacyclononaphan-9-one] |  |  | 1000 to 10000 | 10000 to 30000 | < 10 |  | 
tert-butyl N-methyl-N-[(12R)-12-methyl-10-oxo-14-oxa-2,4,5,7,11,22-hexaazapentacyclo[13.6.2.2^(3,6.0^(5,9.0^(19,23]pentacosa-1(21),3,6,8,15,17,19,22,24-nonaen-24-yl]carbamate |  |  |  |  |  | 86 | 
CNc1cc2nn3c(cnc13)C(=O)N[C@H](C)COc1ccnc3ccc(cc13)N2 [Compound 60] |  |  | 10 to 1000 | 10000 to 30000 | < 10 |  | 
CNc1cc2nc3c(cnn13)C(=O)N[C@H](C)COCc1cc(c3c(c1)ncn3C)N2 [Compound 9, (R,1^3E,1^4E)-3^1,7-Dimethyl-1^7-(methylamino)-3^1H-5-oxa-2,8-diaza-1(5,3)-pyrazolo[1,5-a]pyrimidina-3(7,5)-benzo[d]imidazolacyclononaphan-9-one] |  |  | 1000 to 10000 | ≥ 30000 | < 10 |  | 
tert-Butyl ((7R,E)-7-(hydroxymethyl)-3^1-methyl-9-oxo-3^1H-5-oxa-2,8-diaza-1(6,3),3(4,6)-diimidazo[1,2-b]pyridazinacyclononaphane-1^8-yl)(methyl)carbamate |  |  |  |  |  |  | 25
CNc1cc2nc3c(cnn13)C(=O)NC(C(F)(F)F)COCc1cc(c3c(c1)nnn3C)N2 (stereo not shown) [Compound 95] |  |  | ≥ 30000 | ≥ 30000 | < 10 |  | 
CNc1cc2nc3c(cnn13)C(=O)N[C@H](C)[C@H](C)OCc1cc(c3c(c1)nnn3C)N2 [Compound 93] |  |  | 1000 to 10000 | ≥ 30000 | < 10 |  | 
CNc1cc2nc3c(cnn13)C(=O)NC(C(F)(F)F)COCc1cc(c3nnn(C)c3c1)N2 (stereo not shown) [Compound 92] |  |  | 10000 to 30000 | ≥ 30000 | < 10 |  | 
CNc1cc2nc3c(cnn13)C(=O)N[C@H](C)[C@@H](C)OCc1cc(c3c(c1)nnn3C)N2 [Compound 94] |  |  | 10000 to 30000 | ≥ 30000 | < 10 |  | 
CNc1cc2nn3c(cnc13)C(=O)N[C@H](C)C(C)OCc1cc(c3nnn(C)c3c1)N2 (stereo partly shown) [Compound 90] |  |  | 10 to 1000 | ≥ 30000 | < 10 |  | 
(R,1^3E,1^4E)-3′,7-Dimethyl-1^7-(methylamino)-3^1H-5-oxa-2,8-diaza-1(5,3)-pyrazolo[1,5-a]pyrimidina-3(7,5)-indazolacyclononaphan-9-one [Compound 13] |  |  | 10000 to 30000 | 1000 to 10000 | < 10 |  | 
CNc1cc2nn3c(cnc13)C(=O)N[C@H](C)COCc1cc(cc3[nH]ncc13)N2 [Compound 96, (14R)-14-methyl-21-(methylamino)-12-oxa-2,6,7,15,19,23,24-heptaazapentacyclo[15.5.2.1^(3,10.0^(5,9.0^(20,24]pentacosa-1(23),3(25),4,7,9,17,19,21-octaen-16-one hydrochloride] |  |  | 10 to 1000 | 1000 to 10000 | < 10 |  | 
CNc1cc2nc3c(cnn13)C(=O)N[C@H](C)COCc1cc(c3cnn(C)c3c1)N2 [Compound 52] |  |  | 1000 to 10000 | 10000 to 30000 | < 10 |  | 
CNc1cc2nn3c(cnc13)C(=O)N[C@H](C)COCc1cc(cc3nc[nH]c13)N2 [Compound 97, (14R)-14-methyl-21-(methylamino)-12-oxa-2,6,8,15,19,23,24-heptaazapentacyclo[15.5.2.1^(3,10.0^(5,9.0^(20,24]pentacosa-1(23),3(25),4,6,9,17,19,21-octaen-16-one hydrochloride] |  |  | 10 to 1000 | 1000 to 10000 | < 10 |  | 
CNc1cc2nn3c(cnc13)C(=O)N[C@H](C)COCc1cc(cc3cn[nH]c13)N2 [Compound 98] |  |  | 10 to 1000 | 10 to 1000 | < 10 |  | 
CNc1cc2nn3c(cnc13)C(=O)N[C@H](C)COCc1cc(c3nn(C)cc3c1)N2 [Compound 36] |  |  | 10 to 1000 | 1000 to 10000 | < 10 |  | 
CNc1cc2nn3c(cnc13)C(=O)N[C@H](C)COCc1cc(c3ncn(C)c3c1)N2 [Compound 10, (7R,E)-3′,7-Dimethyl-1^8-(methylamino)-3^1H-5-oxa-2,8-diaza-1(6,3)-imidazo[1,2-b]pyrida-zina-3(4,6)-benzo[d]imidazolacyclononaphan-9-one] |  |  | 1000 to 10000 | 1000 to 10000 | < 10 |  | 
CNc1cc2nc3c(cnn13)C(=O)N[C@H](C)COCc1cc(c3nn(C)cc3c1)N2 [Compound 35] |  |  | 10 to 1000 | ≥ 30000 | < 10 |  | 
CNc1cc2nc3c(cnn13)C(=O)N[C@H](C(C)(C)O)COCc1cc(c3nnn(C)c3c1)N2 [Compound 16] |  |  | ≥ 30000 | ≥ 30000 | < 10 |  | 
CNc1cc2nc3c(cnn13)C(=O)N[C@H](C)[C@H](C)OCc1cc(c3nnn(C)c3c1)N2 [Compound 38] |  |  | 1000 to 10000 | ≥ 30000 | < 10 |  | 
CNc1cc2nc3c(cnn13)C(=O)N[C@H](CO)[C@@H](C)OCc1cc(c3nnn(C)c3c1)N2 [Compound 15] |  |  | 1000 to 10000 | ≥ 30000 | < 10 |  | 
CNc1cc2nn3c(cnc13)C(=O)N[C@H](C)COCc1cc(c3c(cnn3C)c1)N2 [Compound 14, (7R,E)-3′,7-Dimethyl-1^8-(methylamino)-3^1H-5-oxa-2,8-diaza-1(6,3)-imidazo[1,2-b]pyridazina-3(7,5)-indazolacyclononaphan-9-one] |  |  | 10000 to 30000 | 10000 to 30000 | < 10 |  | 
CNc1cc2nn3c(cnc13)C(=O)N[C@H](C)COc1cnnc3ccc(cc13)N2 [Compound 80] |  |  | ≥ 30000 | ≥ 30000 | ≥ 30000 |  | 
CNc1cc2nc3c(cnn13)C(=O)O[C@H](C)COCc1cc(c3nnn(C)c3c1)N2 [Compound 4, (R,1^3E,1^4E)-3^1,7-dimethyl-1^7-(methylamino)-3^1H-5,8-dioxa-2-aza-1(5,3),3(4,6)-dipyrazolo [1,5-a]pyrimidinacyclononaphan-9-one] |  |  | 1000 to 10000 | ≥ 30000 | < 10 |  | 
CNc1cc2nc3c(cnn13)C(=O)N[C@H](CO)COCc1cc(c3nnn(C)c3c1)N2 [Compound 91] |  |  | 1000 to 10000 | 10 to 1000 | < 10 |  | 
